Source: ChEMBL document CHEMBL3769303, “Discovery of membrane active benzimidazole quinolones-based topoisomerase inhibitors as potential DNA-binding antimicrobial agents” (Eur J Med Chem, 2016)
In brackets after ≈: the same amount, converted by molar mass.

Columns and labels:
Type in all cases: functional
Bacillus spizizenii = assay: Antibacterial activity against Bacillus subtilis ATCC 6633 by micro broth dilution method
Escherichia coli [1] = assay: Antibacterial activity against Escherichia coli DH52 by micro broth dilution method
Cyberlindnera jadinii = assay: Antifungal activity against Candida utilis ATCC 9950 after 24 hrs by micro broth dilution method; conditions: Williopsis jadinii, ATCC 9950, 24 h
Salmonella enterica = assay: Antibacterial activity against Salmonella enterica ATCC 14028 by micro broth dilution method
Saccharomyces cerevisiae = assay: Antifungal activity against Saccharomyces cerevisiae ATCC 9763 after 24 hrs by micro broth dilution method; conditions: ATCC 9763, 24 h
[2] = Antifungal activity against Candida mycoderma ATCC 9888 after 24 hrs by micro broth dilution method; conditions: Candida vini
Staphylococcus aureus [3] = assay: Antibacterial activity against Staphylococcus aureus ATCC 25923 by micro broth dilution method
Staphylococcus aureus [4] = assay: Antibacterial activity against methicillin-resistant Staphylococcus aureus N315 by micro broth dilution method
[5] = Antibacterial activity against Bacillus proteus ATCC 13315 by micro broth dilution method
Aspergillus flavus = assay: Antifungal activity against Aspergillus flavus ATCC 204304 after 24 hrs by micro broth dilution method; conditions: ATCC 204304, 24 h
Micrococcus luteus = assay: Antibacterial activity against Micrococcus luteus ATCC 4698 by micro broth dilution method; conditions: NCTC 2665
Escherichia coli [6] = assay: Antibacterial activity against Escherichia coli JM109 by micro broth dilution method
Candida albicans = assay: Antifungal activity against Candida albicans ATCC 10231 after 24 hrs by micro broth dilution method; conditions: ATCC 10231, 24 h
Pseudomonas aeruginosa = assay: Antibacterial activity against Pseudomonas aeruginosa ATCC 27853 by micro broth dilution method
Shigella dysenteriae = assay: Antibacterial activity against Shigella dysenteriae by micro broth dilution method

| Compound | MIC (Bacillus spizizenii) [µg/mL] | MIC (Escherichia coli [1]) [µg/mL] | MIC80 (Cyberlindnera jadinii) [µg/mL] | MIC (Salmonella enterica) [µg/mL] | MIC80 (Saccharomyces cerevisiae) [µg/mL] | MIC80 [2] [µg/mL] | MIC (Staphylococcus aureus [3]) [µg/mL] | MIC (Staphylococcus aureus [4]) [µg/mL] | MIC [5] [µg/mL] | MIC80 (Aspergillus flavus) [µg/mL] | MIC (Micrococcus luteus) [µg/mL] | MIC (Escherichia coli [6]) [µg/mL] | MIC80 (Candida albicans) [µg/mL] | MIC (Pseudomonas aeruginosa) [µg/mL] | MIC (Shigella dysenteriae) [µg/mL] |
| --- | --- | --- | --- | --- | --- | --- | --- | --- | --- | --- | --- | --- | --- | --- | --- |
| CCn1cc(C(=O)O)c(=O)c2cc(F)c(N3CCN(Cc4nc5ccc(Br)cc5[nH]4)CC3)cc21 | 8 (≈ 15.1 µM) | 16 (≈ 30.3 µM) | 16 (≈ 30.3 µM) | 8 (≈ 15.1 µM) | 16 (≈ 30.3 µM) | 32 (≈ 60.6 µM) | 64 (≈ 121 µM) | 32 (≈ 60.6 µM) | 4 (≈ 7.57 µM) | 4 (≈ 7.57 µM) | 2 (≈ 3.79 µM) | 16 (≈ 30.3 µM) | 64 (≈ 121 µM) | 2 (≈ 3.79 µM) | 16 (≈ 30.3 µM) |
| CCn1cc(C(=O)OC)c(=O)c2cc(F)c(N3CCN(/C=N\c4nc5ccccc5[nH]4)CC3)cc21 | 4 (≈ 8.39 µM) | 32 (≈ 67.2 µM) | 64 (≈ 134 µM) | 16 (≈ 33.6 µM) | 32 (≈ 67.2 µM) | 128 (≈ 269 µM) | 64 (≈ 134 µM) | 128 (≈ 269 µM) | 32 (≈ 67.2 µM) | 64 (≈ 134 µM) | 32 (≈ 67.2 µM) | 64 (≈ 134 µM) | 64 (≈ 134 µM) | 8 (≈ 16.8 µM) | 64 (≈ 134 µM) |
| CCCCCCCCCCn1c(CN2CCN(c3cc4c(cc3F)c(=O)c(C(=O)O)cn4C3CC3)CC2)nc2ccccc21 | 64 (≈ 106 µM) | 128 (≈ 213 µM) | 64 (≈ 106 µM) | 32 (≈ 53.2 µM) | 16 (≈ 26.6 µM) | 64 (≈ 106 µM) | 64 (≈ 106 µM) | 64 (≈ 106 µM) | 32 (≈ 53.2 µM) | 16 (≈ 26.6 µM) | 128 (≈ 213 µM) | 128 (≈ 213 µM) | 64 (≈ 106 µM) | 32 (≈ 53.2 µM) | 64 (≈ 106 µM) |
| CCn1cc(C(=O)O)c(=O)c2cc(F)c(N3CCN(Cc4nc5ccccc5[nH]4)CC3)cc21 | 1 (≈ 2.22 µM) | 0.5 (≈ 1.11 µM) | 0.5 (≈ 1.11 µM) | 0.5 (≈ 1.11 µM) | 0.5 (≈ 1.11 µM) | 1 (≈ 2.22 µM) | 2 (≈ 4.45 µM) | 1 (≈ 2.22 µM) | 0.5 (≈ 1.11 µM) | 0.5 (≈ 1.11 µM) | 1 (≈ 2.22 µM) | 4 (≈ 8.9 µM) | 0.5 (≈ 1.11 µM) | 1 (≈ 2.22 µM) | 2 (≈ 4.45 µM) |
| CCCn1c(CN2CCN(c3cc4c(cc3F)c(=O)c(C(=O)O)cn4C3CC3)CC2)nc2ccccc21 | 32 (≈ 63.5 µM) | 1 (≈ 1.99 µM) | 0.5 (≈ 0.993 µM) | 4 (≈ 7.94 µM) | 0.5 (≈ 0.993 µM) | 0.5 (≈ 0.993 µM) | 32 (≈ 63.5 µM) | 2 (≈ 3.97 µM) | 32 (≈ 63.5 µM) | 0.5 (≈ 0.993 µM) | 1 (≈ 1.99 µM) | 4 (≈ 7.94 µM) | 0.25 (≈ 0.496 µM) | 1 (≈ 1.99 µM) | 4 (≈ 7.94 µM) |
| CCn1cc(C(=O)O)c(=O)c2cc(F)c(N3CCN(Cc4nc5ccc([N+](=O)[O-])cc5[nH]4)CC3)cc21 | 8 (≈ 16.2 µM) | 8 (≈ 16.2 µM) | 8 (≈ 16.2 µM) | 4 (≈ 8.09 µM) | 16 (≈ 32.4 µM) | 8 (≈ 16.2 µM) | 16 (≈ 32.4 µM) | 8 (≈ 16.2 µM) | 2 (≈ 4.04 µM) | 2 (≈ 4.04 µM) | 1 (≈ 2.02 µM) | 32 (≈ 64.7 µM) | 4 (≈ 8.09 µM) | 2 (≈ 4.04 µM) | 4 (≈ 8.09 µM) |
| CCn1cc(C(=O)O)c(=O)c2cc(F)c(N3CCN(CCc4nc5ccccc5[nH]4)CC3)cc21 | 2 (≈ 4.31 µM) | 32 (≈ 69 µM) | 32 (≈ 69 µM) | 32 (≈ 69 µM) | 64 (≈ 138 µM) | 64 (≈ 138 µM) | 64 (≈ 138 µM) | 16 (≈ 34.5 µM) | 16 (≈ 34.5 µM) | 32 (≈ 69 µM) | 64 (≈ 138 µM) | 32 (≈ 69 µM) | 64 (≈ 138 µM) | 32 (≈ 69 µM) | 128 (≈ 276 µM) |
| CCCCCCCCn1c(CN2CCN(c3cc4c(cc3F)c(=O)c(C(=O)O)cn4CC)CC2)nc2ccccc21 | 32 (≈ 57 µM) | 8 (≈ 14.2 µM) | 2 (≈ 3.56 µM) | 4 (≈ 7.12 µM) | 4 (≈ 7.12 µM) | 2 (≈ 3.56 µM) | 32 (≈ 57 µM) | 2 (≈ 3.56 µM) | 4 (≈ 7.12 µM) | 0.5 (≈ 0.89 µM) | 4 (≈ 7.12 µM) | 32 (≈ 57 µM) | 8 (≈ 14.2 µM) | 2 (≈ 3.56 µM) | 16 (≈ 28.5 µM) |
| O=C(O)c1cn(C2CC2)c2cc(N3CCN(c4nc5ccccc5[nH]4)CC3)c(F)cc2c1=O | 2 (≈ 4.47 µM) | 1 (≈ 2.23 µM) | 4 (≈ 8.94 µM) | 1 (≈ 2.23 µM) | 1 (≈ 2.23 µM) | 16 (≈ 35.8 µM) | 1 (≈ 2.23 µM) | 0.5 (≈ 1.12 µM) | 2 (≈ 4.47 µM) | 1 (≈ 2.23 µM) | 1 (≈ 2.23 µM) | 2 (≈ 4.47 µM) | 2 (≈ 4.47 µM) | 0.5 (≈ 1.12 µM) | 0.5 (≈ 1.12 µM) |
| CCn1cc(C(=O)O)c(=O)c2cc(F)c(N3CCN(Cc4nc5ccccc5n4Cc4ccc(F)cc4)CC3)cc21 | 8 (≈ 14.3 µM) | 32 (≈ 57.4 µM) | 8 (≈ 14.3 µM) | 8 (≈ 14.3 µM) | 8 (≈ 14.3 µM) | 32 (≈ 57.4 µM) | 8 (≈ 14.3 µM) | 16 (≈ 28.7 µM) | 32 (≈ 57.4 µM) | 16 (≈ 28.7 µM) | 8 (≈ 14.3 µM) | 32 (≈ 57.4 µM) | 8 (≈ 14.3 µM) | 8 (≈ 14.3 µM) | 16 (≈ 28.7 µM) |
| CCCCCCCCCCCCn1c(CN2CCN(c3cc4c(cc3F)c(=O)c(C(=O)O)cn4CC)CC2)nc2ccccc21 | 128 (≈ 207 µM) | 256 (≈ 414 µM) | 64 (≈ 104 µM) | 256 (≈ 414 µM) | 256 (≈ 414 µM) | 128 (≈ 207 µM) | 128 (≈ 207 µM) | 256 (≈ 414 µM) | 256 (≈ 414 µM) | 64 (≈ 104 µM) | 256 (≈ 414 µM) | 512 (≈ 829 µM) | 128 (≈ 207 µM) | 256 (≈ 414 µM) | 256 (≈ 414 µM) |
